Data: ChEMBL document CHEMBL2448809, “UCSF DeRisi Lab MMV Box Apicoplast Screening”

System: Plasmodium falciparum
Assay: MMV: Compounds (1uM) were screened in a 72hr growth assay monitored by flow cytometry both in the presence and absence of supplemental isopentenyl pyrophosphate (IPP) 200uM. Compounds which fail to show anti-malarial activity when chemically rescued by IPP are therefore specific to the apicoplast. The values are expressed as the ratio of the corresponding activity with and without IPP, respectively.
Type: functional, W2

SMILES | Ratio
CN1CCN(c2ccc(Nc3c4ccccc4nc4ccccc34)cc2)CC1 | 0.8
CN(C)CCCNc1c2ccccc2nc2ccccc12 | 0.7564
CCN1CCCC1CNc1[nH]cnc2c3cc(Cl)ccc3nc1-2 (configuration not stated) | 0.925
COc1ccc(-c2c(C)nn3c(N)c(C#N)cnc23)cc1OC | 0.831
CSC1=NC(=Nc2c(C)cccc2C)C2(CCC(C(C)(C)C)CC2)N1c1ccc(Cl)cc1 (configuration not stated) | 0.8243
C[n+]1c2ccccc2nc2ccc(NCCO)cc21 | 0.9178
Cc1cc(C)cc(Nc2cc(C)nc3nc(C(F)(F)F)nn23)c1 | 0.8519
O=C(NCC(c1ccsc1)N1CCCCCC1)c1ccc(C(F)(F)F)cc1 (configuration not stated) | 0.9077
COc1ccc(-c2cc3c(SCC(=O)Nc4cc(C(F)(F)F)ccc4Cl)nccn3n2)cc1 | 0.9714
Cc1ccc(-c2cc3c(SCC(=O)Nc4cc(C(F)(F)F)ccc4Cl)nccn3n2)cc1 | 0.9375
CCN(CC)CCNc1ncnc2c1[nH]c1ccc(Cl)cc12 | 0.6923
CCOC(=O)c1cnc2ccc(CC)cc2c1O | 1
Cc1ccc(-c2cc3c(nn2)-c2ccccc2C3=O)cc1 | 0.7253
CCN(CC)CCNc1ccnc2cc(Cl)ccc12 | 0.8734
Cc1ccc(Nc2nc(-c3ccccn3)cs2)cc1 | 0.7264
CCCCCC(=O)N1c2ccccc2N=C2CC(c3ccc(OC)c(OC)c3)CC(O)=C2C1c1ccc(C(F)(F)F)cc1 (configuration not stated) | 0.7792
Cc1cc(Nc2ccc3ccccc3c2)n2ncnc2n1 | 0.8919
Cc1cc(NCCN2CCCCC2)c2ccc3ccccc3c2n1 | 0.8873
COc1ccc(-n2ccnc2SCC(=O)Nc2cc(C)ccc2C)c(OC)c1 | 0.75
CCN1CCN(Cc2ccc(NC(=O)c3cc4ccc5cccnc5c4[nH]3)cc2)CC1 | 1.563
COc1ccc(-c2nc(NC(=O)CS(=O)(=O)c3ccc(F)cc3)sc2C)cc1 | 0.8289
O=C(NCc1ccco1)C1CCN(S(=O)(=O)c2ccc(Cl)cc2)CC1 | 0.8889

SMILES | Ratio
O=C(O)C1Cc2c([nH]c3ccccc23)C(c2ccc(Cl)cc2Cl)N1 (configuration not stated) | 6.316
c1ccc(-c2ccc(-c3nc4ccccc4[nH]3)cc2)cc1 | 1.5
CCC(C)NCC(O)(c1ccc(Cl)cc1)c1ccc(Cl)cc1 (configuration not stated) | 1.02
Cc1ccc(N2C(=O)C3C(C2=O)C2(c4ccccc4)C(=O)C3(c3ccccc3)C(c3ccccc3)=C2c2ccccc2)cc1 (configuration not stated) | 1.121
CCc1c(C)c(=N)c2ccccc2n1C.I | 1.064
COc1cccc(NC(=O)[C@H](C(C)C)n2c(=O)[nH]c3ccccc3c2=O)c1 | 0.7619
CCOC(=O)c1cn(CC)c2cc(N(C)CCc3ccc(OC)c(OC)c3)c(F)cc2c1=O | 0.75
CCC(c1ccccc1)c1nn2c(-c3cccs3)nnc2s1 (configuration not stated) | 0.775
CC(C)(C)c1ccc(O)c(CNC2CCCCC2)c1 | 0.8356
O=[N+]([O-])c1ccc(C=NNc2nc3ccccc3[nH]2)cc1 | 1.132
CCOc1cc2c(cc1OCC)C(c1cc(OC)c(O)cc1Cl)NCC2 (configuration not stated) | 0.9254
CC1CN(C(=O)c2sc3ccccc3c2Cl)CC(C)O1 (configuration not stated) | 0.8415
COCCNC(=O)c1ccc(OC2CCN(Cc3ccc(F)c(F)c3)CC2)c(Cl)c1 | 1.063
CN(C)c1ccc(C=Cc2nc(=O)c3ccccc3o2)cc1 | 0.8302
COc1ccc(C2=C(c3ccc(OC)cc3)C3(c4ccccc4)C(=O)C2(c2ccccc2)C2C(=O)N(c4ccc(C)cc4)C(=O)C23)cc1 (configuration not stated) | 1.0625
CCOC(=O)c1c(NC(=O)c2ccccc2)sc2c(O)c(CN(CC)CC)ccc12 | 0.8592
CCOC(=O)C1=C(c2ccccc2)N=c2sc(=Cc3cc(C)n(-c4ccc(F)cc4)c3C)c(=O)n2C1c1cccc(OC)c1OC (configuration not stated) | 0.7267
CCC1(C)CC(CCNCc2ccccc2O)(c2ccc(C)cc2)CCO1 (configuration not stated) | 0.8378
O=C(CCc1ccco1)NC1CCN(CC2(c3ccc(Cl)cc3)CCC2)CC1 | 0.875
OC(CNC1CCCCC1)Cn1c2ccccc2c2ccccc21 (configuration not stated) | 1.115
Cc1cc(Nc2ccc(C)c(Cl)c2)n2nc(C(F)(F)F)nc2n1 | 0.6628
COc1cccc(C=Cc2nc(=O)c3ccccc3o2)c1OC | 0.4632

SMILES | Ratio
CCCN(CCC)CC(O)COc1ccccc1C(=O)Nc1ccccc1 (configuration not stated) | 0.8553
Fc1ccc2[nH]c3c(NCCCN4CCOCC4)ncnc3c2c1 | 0.8594
COc1ccc(C(=O)Nc2nonc2-c2ccc(OC)c(OC)c2)cc1Cl | 0.8261
COCCN(C(=O)Cc1cccs1)C(C(=O)NCc1ccc(OC)cc1)c1ccc(C(C)C)cc1 (configuration not stated) | 0.8315
COc1ccc(C=C2SC(=N)N(c3ccccc3OC)C2=O)cc1 | 0.8861
COc1ccc(NC(=O)C2c3ccccc3C(=O)N(CC(C)C)C2c2cccs2)cc1Cl (configuration not stated) | 0.9242
CCOC(=O)c1c(C)n(-c2ccc(Cl)cc2)c2ccc(OC(=O)C=Cc3ccccc3)cc12 | 1.121
COc1ccc2c(c1)OC(O)(C(F)(F)C(F)(F)F)CC2=O (configuration not stated) | 0.9
FC(F)(F)c1cccc(CNC2CCN(CCc3ccccc3)CC2)c1 | 0.9344
Oc1ccc(Cl)cc1CNc1nc2ccccc2[nH]1 | 1.068
CCOc1cc(Cl)c(C(C)NC(=O)c2ccccc2)cc1OCC (configuration not stated) | 0.9848
C=CC12CCN(CC1)C(C(O)c1ccnc3ccc(OC)cc13)C2.Cl (configuration not stated) | 0.6933
Cc1ccc(-c2cc3nc4c(c(O)n3n2)CCCC4)cc1 | 0.9459
O=C(c1ccccc1F)N(Cc1ccc(Cl)cc1)c1ccccn1 | 0.7857
Cc1cccc(Nc2nc(N)c3ccccc3n2)c1.Cl | 0.9275
COc1ccc(C(=O)Nc2ccc(Cl)cc2C(=O)Nc2ccncc2)cc1 | 0.8104
CCn1c(CN2CCN(Cc3ccccc3)CC2)nc2cc(NC(=O)c3cccs3)ccc21 | 0.8481
COc1ccccc1CNC(=O)CCn1c(=O)[nH]c2ccccc2c1=O | 1.153
O=C(Nc1ccc(Cl)cc1)N1CCN(c2ccc3nncn3n2)CC1 | 0.8112
c1ccc2cc3c(Nc4ccc(N5CCOCC5)cc4)ccnc3cc2c1 | 0.7931
O=C(CSc1ccc2nnc(-c3cccc(F)c3)n2n1)Nc1ccc2c(c1)OCO2 | 0.7344
CCCCNCC(O)(c1ccc(Cl)cc1)c1ccc(Cl)cc1 | 1.074

SMILES | Ratio
Cc1cc(C)c2c(c1)OCN(Cc1ccccc1Cl)C2 | 0.8871
COc1cc(OC)c(N(C)C(=O)c2cc3c(s2)-c2ccccc2S(=O)(=O)C3)cc1Cl | 1
COc1ccccc1NC1=C(N2CCCCC2)C(=O)c2ccccc2C1=O | 0.9344
CCOC(=O)c1cn(CC)c2cc(N3CCCCC3)c(F)cc2c1=O | 0.6824
CCCc1cc(O)c2c3c(c(=O)oc2c1)CN(C)CC3 | 0.8028
Cc1cc(NC(=O)C2c3ccccc3C(=O)N(CC(C)C)C2c2cccs2)no1 (configuration not stated) | 0.791
Cl.Oc1ccccc1CNCC12CC3CC(CC(C3)C1)C2 | 0.8
CNCCCNc1ccnc2cc(Cl)ccc12 | 0.8333
COc1ccccc1CNC(=O)CCn1c(=O)[nH]c2ccsc2c1=O | 1.123
COc1ccc(Br)cc1C1Nc2ccc3ccccc3c2C2=C1C(=O)CC(c1ccccc1)C2 (configuration not stated) | 0.8077
Cc1cc(C=C2SC(=Nc3ccccc3)N(C3CCCC3)C2=O)c(C)n1-c1ccc(Cl)cc1 | 1.038
CCn1c(SCC(=O)Nc2cc(C(F)(F)F)ccc2Cl)nc2ccccc2c1=O | 1
Cc1ccc(Cn2c(N3CCC(C(=O)NCc4cccs4)CC3)nc3ccccc32)cc1 | 1.032
CC1CCN(Cc2ccc(NC(=O)c3cc4ccc5cccnc5c4[nH]3)cc2)CC1 | 1
O=C(Nc1ccc(Cl)cc1C(=O)Nc1ccncc1)c1ccc(Cl)cc1Cl | 0.7485
CCOc1cccc2sc(N(Cc3cccnc3)C(=O)C3CCCCC3)nc12 | 0.8788
CCOc1ccc(-c2nonc2NC(=O)c2cccc(C)c2)cc1OCC | 0.6977
CCc1ccc(Nc2cc(C)c3ccc(O)cc3n2)cc1.Cl | 0.7867
COc1ccc2c(=O)cc(C(Cl)(Cl)Cl)oc2c1 | 0.7571
CC(C)(C)CC(C)(C)NCC(O)COc1ccc2c(c1)CCC2.Cl (configuration not stated) | 1.052
CCOc1ccc(/C=C/c2nc(=O)c3ccccc3o2)cc1 | 0.7714
O=C(Nc1ccccc1O)c1ccc(-c2ccc(Cl)cc2Cl)o1 | 0.8413

SMILES | Ratio
O=C(Nc1nc(-c2ccccn2)cs1)c1ccccc1Br | 0.987
CSc1ccccc1C(=O)Nc1nc(-c2ccccn2)cs1 | 0.8125
CC(O)(c1ccc(Cl)cc1)C(CN1CCCCC1)c1ccccc1.Cl (configuration not stated) | 0.9286
CCCCc1ccc(NS(=O)(=O)c2cc3c4c(c2)CCN4C(=O)CC3)cc1 | 0.6295
CCOc1ccccc1CNC(=O)C1c2ccccc2C(=O)N(CC(C)C)C1c1cccs1 (configuration not stated) | 1.143
COc1ccc(-c2nc3cc(Cc4ccc5[nH]c(-c6ccc(OC)cc6)nc5c4)ccc3[nH]2)cc1 | 1.389
CCOC(=O)c1ccc2nc(-c3ccccc3)cc(O)c2c1 | 0.3465
Cc1cc(Nc2ccc(Cl)cc2)n2nc(C(F)(F)F)nc2n1 | 0.9718
COc1ccc(C(C)=O)cc1N1C(=O)C2C(C1=O)C1(c3ccccc3)C(=O)C2(c2ccccc2)C(c2ccc(C)cc2)=C1c1ccc(C)cc1 (configuration not stated) | 0.8421
CCCCCCOC(=O)C1=C(C)NC(=O)NC1c1ccccc1F (configuration not stated) | 0.6566
COc1ccc(C2Sc3ccccc3N=C3C2=C(O)c2ccccc23)cc1 (configuration not stated) | 1.228
Cc1ccc(N2C3c4ccccc4N(S(=O)(=O)c4ccc(C)cc4)C2c2ccccc2N3S(=O)(=O)c2ccc(C)cc2)cc1 | 0.3473
CCCc1c(CC)c(=N)c2ccccc2n1C | 1.043
CCN(CC)CCCNc1nc(-c2ccc(Cl)cc2)nc2ccccc12 | 1.055
Cc1ccc(Nc2nc(NCCO)c3ccccc3n2)cc1C | 0.8028
CC1CCCCN1CCCNC(=O)c1ccc2c(c1)sc1nc(-c3ccc(F)cc3)cn12 (configuration not stated) | 1.167
CCOC(=O)c1cnc2c(C)cc(C)cc2c1Nc1ccc(OC)c(OC)c1 | 1.122
COc1ccc(NC(=O)C2c3ccccc3C(=O)N(CC(C)C)C2c2cccs2)cc1 (configuration not stated) | 1.197
c1ccc(Cn2c(N=Nc3c(Nc4ccccc4)ccc4ccccc34)nc3ccccc32)cc1 | 0.863
